The test concerns peptide sequence L-Lys-D-Ala-D-Ala (Receptor). Description: Determination of the binding constant by Laser Light Scattering (LLS) on receptor-coated polymer particles. The following applies: Langmuir fit. Here is the method:
[…]
After each addition the mixture was stirred for 30 seconds and let balance for 1 minute, and the scattering light intensity was measured by using a 5 milliwatt He—Ne laser and a photomultiplier to convert the scattered light into an electric signal.
The light intensity was recorded for 10 seconds for consecutive six times thus selecting the lowest value in order to minimize the noise due to the possible presence of powder in the sample. […]

Each structure is given as a SMILES string. Where a name gives a salt, the structure may show the parent alone.

For `CN[C@H](CC(C)C)C(=O)N[C@H]1C(=O)N[C@@H](CC(N)=O)C(=O)N[C@H]2C(=O)N[C@H]3C(=O)N[C@H](C(=O)N[C@H](C(=O)O)c4cc(O)cc(O)c4-c4cc3ccc4O)[C@H](O)c3ccc(c(Cl)c3)Oc3cc2cc(c3O[C@@H]2O[C@H](CO)[C@@H](O)[C@H](O)[C@H]2O[C@H]2C[C@](C)(N)[C@H](O)[C@H](C)O2)Oc2ccc(cc2Cl)[C@H]1O` [Vancomycin, Vancomycin hydrochloride hydrate], the “binding constant (receptor-ligand)” value is, setting by setting: (Example 1: particles of average diameter 78 nm, TFE copolymer with 40% by moles perfluoromethylvinylether, 0.4 millimole Vancomycin solution) 1.5e+06 mol⁻¹; (Example 2: particles of average diameter 40 nm, TFE copolymer with 30% by moles TTD, 0.9 millimolar Vancomycin) 1.1e+06 mol⁻¹.

The values are drawn from patent US20080118992A1, “Method For Measuring Molecular Interactions By Laser Light Scattering (Lls)” (UNIVERSITA DEGLI STUDI DI MILANO, priority 2004, published 2008).
